The text below walks through data of ChEMBL document CHEMBL5247626, “In vitro and in vivo biological evaluation of newly synthesized multi-target 20(R)-panaxadiol derivatives for treating Alzheimer's disease” (Eur J Med Chem, 2022).

Series [1] can be described thus: Cytotoxicity against human HUVEC cells assessed as cell viability at 120 uM incubated for 24 hrs by MTT assay. The series is classed as toxicity, cell-based. As to conditions: read-out: Activity. A general note: Tetrazolium dyes change colour on reduction, which living cells bring about.
In another series the test system is Mus musculus. The series can be described thus: Antialzheimer activity against amyloid beta (25 to 35)-induced cognitive deficit ICR mouse model assessed as effect on total number of arm enteries at 12.5 to 50 mg/kg,po observed after 11 days of administration by Y maze test. The format is functional, organism-based. Particulars: dose 12.5-50 mg/kg, time 11.0 day.

The test system of another series is N2a. Briefly: Cytotoxicity against mouse Neuro2a cells assessed as decrease in cell viability at 120 uM incubated for 24 hrs by MTT assay. The format is toxicity, cell-based.
A short description of series [2]: Cytotoxicity against human HepG2 cells assessed as cell viability at 120 uM incubated for 24 hrs by MTT assay. The series is classed as toxicity, cell-based. As to conditions: read-out: Activity.
The subject of a further series is PC-12. Briefly: Neuroprotective activity against amyloid beta (25 to 35)-induced rat PC12 cells assessed as reduction in amyloid beta (25 to 35)-induced apoptosis rate at 7.5 uM incubated for 15 mins by Annexin V-FITC/PI staining based flow cytometric analysis (reference value: 2.9%). The format is functional. The arrangement: scale not given: the % may be the effect or the level left. As to conditions: 0.25 h.

Calls of active or inactive are those of the source. No cut-off for these calls is given here. Some results are limits rather than exact numbers.

As for `CC1(C)CCC[C@](C)([C@H]2CC[C@]3(C)[C@@H]2[C@H](O)C[C@@H]2[C@@]4(C)CC[C@H](OC(=O)NCc5ccccc5)C(C)(C)[C@@H]4CC[C@]23C)O1`, the viability at 24 h, 120 µM in series [1] and in series [2] was > 50% each time. Moreover, the outcome in the series with Mus musculus was inactive. In addition, the Activity result with N2a is reported as “Toxic”; in the series on PC-12 it was 14.1%.
